PubChem BioAssay AID1419 (Emory University Molecular Libraries Screening Center, 2008)
The source made the active and inactive calls. The rule behind the calls is not given here.

Experiment: EBV protein-peptide binding inhibitors, dose response, biochemical, fluorescence polarization (AID 1419)
Conditions: cell-free protein-peptide binding, 2 h; for fold change: measured here: P channel fold over control, at 54 µM

Compound | IC50 | fold change
N#CC1CC(c2ccc([N+](=O)[O-])cc2)=NN1c1ccc([N+](=O)[O-])cc1 (stereo not given) | 3.86 µM | 6.23
COC(=O)c1cc(NC(=O)c2ccccc2)c(=O)oc1/C=C/Nc1ccc(Oc2ccccc2)cc1 | 1.4 µM | 22
O=[N+]([O-])c1cccc(-c2cn3nc(-c4ccccc4)c(-c4ccccc4)nc3n2)c1 | 5.71 µM | 6.61
CCn1c(CSc2nnc3ccccn23)nc2cc(C(=O)O)ccc21 | 4.04 µM | 1.93
COC(=O)c1cc2c(-c3ccccc3)c(C)c3ccccn3c-2c1C(=O)OC | 9.93 µM | 1.47
Cc1nn(-c2ccccc2)c(N2CCCC2)c1/C=C1\N=C(c2ccc(F)cc2)OC1=O | 7.44 µM | 5.64
Cc1[nH]c(=O)[nH]c(=O)c1CSCC(=O)OCC(=O)Nc1ccccn1 | > 54 µM (inactive) | 1.09
O=c1[nH]c(=O)n(Cc2ccccc2)c(O)c1/C=C1\C=Nc2ccccc21 | 2.18 µM | 6.67
Cc1ccc2c3c(cccc13)-c1ccccc1C2=O | 2.37 µM | 2.72
Cn1c(O)c(C=Nc2ccc(N3CCOCC3)cc2)c(=O)n(C)c1=S | 18.9 µM | 6.36
CCOc1ccc(NC(=O)c2cc3c(C)nc4ccccc4c3o2)cc1 | > 54 µM (inactive) | 0.947
CCOC(=O)/C(=C/c1ccc(N2CCC(c3ccccc3)=N2)cc1)C(C)=O | 3.78 µM | 11.8
O=C(CSc1ccccn1)Nc1ccc2c(c1)C(=O)c1ccccc1C2=O | 19.4 µM | 0.783
Nc1ccc2c3c(cccc13)C(=O)N(c1ccccc1)C2=O | < 0.42 µM | 200
Cc1cc(/C=C2\SC(=S)N(Cc3ccco3)C2=O)c(C)n1-c1ccccc1 | 7.24 µM | 4.81
CS(=O)(=O)N1N=C(c2ccccc2)CC1c1ccc2c(c1)OCO2 (stereo not given) | 9.83 µM | 4.93
Oc1ccccc1C=NC1=NN(c2cccc(C(F)(F)F)c2)CC1 | 3.11 µM | 19.9
CCCCN1C(=O)/C(=C/C=C2\Oc3ccccc3N2CC)SC1=S | 5.36 µM | 13.9
CCN1CC=C2C(C1)C(c1ccc(Cl)s1)C(C#N)=C(N)C2(C#N)C#N (stereo not given) | 0.95 µM | 9.28
COc1ccc(S(=O)(=O)NCCc2ccc(F)cc2)cc1 | > 54 µM (inactive) | 0.98

Compound | IC50 | fold change
O=C1C2=C(SCCS2)C(=O)N1CCCO | 2.57 µM | 3.44
O=S(=O)(Nc1nc2ccccc2nc1-[n+]1cccc(N=C([O-])c2ccccc2Cl)c1)c1ccccc1 | 1.13 µM | 2.79
N=c1oc2ccc3ccccc3c2cc1-c1nc(-c2ccccc2)cs1 | 4.67 µM | 8.37
N#CC(C#N)=Cc1ccc(-c2ccccc2F)o1 | 5.06 µM | 18.8
CN(C)c1ccnc2sc(C(=O)c3ccc(Br)cc3)c(N)c12 | > 54 µM (inactive) | 0.973
Cc1c(N=C2N=C(NC(=O)c3ccc(F)cc3)c3ccccc32)c(=O)n(-c2ccccc2)n1C | 6.56 µM | 6.09
Cc1ccc[n+](-c2nc([O-])sc2C=O)c1 | 0.65 µM | 44.1
Cc1cc(=O)oc2c(CN3CCC(C)CC3)c(O)c(Cl)cc12 | 2.42 µM | 2.16
CCCSCCCNC(=O)CC1Oc2ccccc2NC1=O (stereo not given) | > 54 µM (inactive) | 1.09
COc1cccc(/C(O)=C/c2nc3ccc(C(=O)NCCc4ccc(Cl)cc4)cc3[nH]c2=O)c1 | < 0.42 µM | 12.1
CC(C)N(C(=O)C[n+]1ccc(/C=N/O)cc1)C(C)C | > 54 µM (inactive) | 1.05
COc1ccc(-c2c(C#N)c(N)nc3sc(C(=O)c4ccccc4)c(N)c23)cc1 | 6.7 µM | 7.69
Cc1ccc([N+](=O)[O-])cc1-c1ccc(/C=C(\C#N)c2[nH]nc(N)c2C#N)o1 | > 54 µM (inactive) | 0.727
Clc1ccc(OCc2nnc(-c3ccccc3Br)o2)c(Cl)c1 | > 54 µM (inactive) | 1
O=C(NC1CC1)c1cc(-c2ccco2)nc2ccccc12 | 3.96 µM | 1.06
COc1cc(C=C2C(=O)c3ccccc3C2=O)cc(OC)c1OC | > 54 µM (inactive) | 1.06
CN(C(=O)COC(=O)c1cc(-c2ccco2)nc2ccccc12)C1CCS(=O)(=O)C1 (stereo not given) | 2.91 µM | 0.9
CCn1nc(-c2ccccc2)nc2c(=O)n(C)c(=O)nc1-2 | 4.3 µM | 4.56
Nc1c(S(=O)(=O)c2ccccc2)c2nc3ccccc3nc2n1Cc1ccco1 | > 54 µM (inactive) | 1.32
O=C1CCCC2=C1Sc1ccc(Cl)cc1N2 | 5.79 µM | 2.69

Compound | IC50 | fold change
CC1=NOC(=O)/C1=C\c1ccc(-c2cc(Cl)ccc2Cl)o1 | 1.49 µM | 4.14
CCOc1ccc(N=C2NC(=O)S/C2=C\c2ccc(N(C)C)cc2)cc1 | 5.8 µM | 8.81
Cc1cc2nc3c(=O)n(CCc4ccccc4)c(=O)[nH]c3nc2cc1N | < 0.42 µM | 115
Cc1cc(C)c2cc3c(ccn3C3OC[C@H](O)[C@H](O)[C@H]3O)cc2n1 (stereo not given in full) | 3.78 µM | 2.96
O=C(CCN1CCN(c2ccccc2)CC1)N/N=C/c1ccc(O)c(O)c1O | > 54 µM (inactive) | 1.01
O=C(O)COn1c(-c2ccccc2)nc2ccc([N+](=O)[O-])cc21 | > 54 µM (inactive) | 1.17
Cc1ccccc1N1C(=O)NC(=O)/C(=C\c2ccc3c(c2)CCCN3Cc2ccccc2)C1=O | 3.61 µM | 10.3
O=C(Cc1nc2ccccc2[nH]c1=O)c1ccccc1 | 9.54 µM | 5.07
O=C1c2cccc3c([N+](=O)[O-])ccc(c23)C(=O)N1Cc1cccnc1 | > 54 µM (inactive) | 5.08
Cc1c2ccccc2nc2c(F)c(N(C)C)c(F)c(F)c12 | < 0.42 µM | 8.81
CCN(CC)c1ccc2c(c1)oc(=O)c1c(Cl)cc(=O)oc12 | 6.37 µM | 11.9
Cn1cccc1/C=C1/C(=O)NC(=O)N(Cc2ccc(F)cc2)C1=O | > 54 µM (inactive) | 1.04
COc1cc(/C=N/c2oc(-c3ccccc3)cc2C#N)ccc1O | 15.5 µM | 10.2
CCN(CC)CCN1C(=O)c2cccc3cc(N)cc(c23)C1=O | 3.39 µM | 3.91
O=c1cc(-c2ccccc2)nc2c(-c3ccccc3)c(C(F)(F)F)[nH]n12 | > 54 µM (inactive) | 1.02
O=C(OCCN1C(=O)c2cccc3c(N4CCOCC4)ccc(c23)C1=O)c1ccc(Cl)cc1 | 4.07 µM | 53.3
O=C(CSc1nc(-c2ccccc2)nc2c1Cc1ccccc1O2)Nc1ccc(C(=O)O)cc1 | 1.64 µM | 1.12
Nc1cccc2c1C(=O)N(CC(=O)NC13CC4CC(CC(C4)C1)C3)C2=O | 8.06 µM | 2.22
O=C(ONc1ccc(N=NC(=O)c2ccccc2O)cc1)c1ccccc1 | > 54 µM (inactive) | 1.09
Cc1cccc(-n2c(SCc3cc(=O)n4ccsc4n3)nc3ccccc32)c1 | 2.79 µM | 1.78
